Laboratory results taken from patent US5683989A, “Treatment of ischemias by administration of 2,N^6 -substituted adenosines” (Novo Nordisk A/S, priority 1995, dated 1997).

Legend:
A1 receptor = details: literature, in words; cited from earlier work
adenosine A1 receptor = target: T1, adenosine A1 receptor (Rattus norvegicus, UniProt P25099); assay: In vitro binding to adenosine A1 receptor, radioligand [^3 H]-(R)-PIA; details: single determinations only; for Ki: [^3 H]-(R)-PIA radioligand; for Ratio A2 /A1: ratio of A2 Ki to A1 Ki
T1 construct: from tissue
T1 sequence (P25099 1-326): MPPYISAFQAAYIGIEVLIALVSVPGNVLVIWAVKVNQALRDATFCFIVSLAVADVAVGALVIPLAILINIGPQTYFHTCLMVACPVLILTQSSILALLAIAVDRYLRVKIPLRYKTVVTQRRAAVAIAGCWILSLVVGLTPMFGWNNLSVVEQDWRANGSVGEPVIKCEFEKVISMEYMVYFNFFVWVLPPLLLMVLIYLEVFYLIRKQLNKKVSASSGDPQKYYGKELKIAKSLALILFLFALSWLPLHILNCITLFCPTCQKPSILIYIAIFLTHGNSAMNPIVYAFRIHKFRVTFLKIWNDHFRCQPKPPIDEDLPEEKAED
Excerpt: (§1) Evaluation of in vitro binding to adenosine A1 and A2 receptors
(§2) The methods used are described fully in European Journal of Pharmacology, 1993, 242, 221-228.

A2 receptor = target: T2, A2 receptor (Rattus norvegicus, UniProt P30543); assay: In vitro binding to adenosine A2 receptor, radioligand [^3 H]-CGS 21680; details: [^3 H]-CGS 21680 radioligand; single determinations only
T2 construct: from tissue
Excerpt: as §1, §2

T2 sequence (P30543 whole entry): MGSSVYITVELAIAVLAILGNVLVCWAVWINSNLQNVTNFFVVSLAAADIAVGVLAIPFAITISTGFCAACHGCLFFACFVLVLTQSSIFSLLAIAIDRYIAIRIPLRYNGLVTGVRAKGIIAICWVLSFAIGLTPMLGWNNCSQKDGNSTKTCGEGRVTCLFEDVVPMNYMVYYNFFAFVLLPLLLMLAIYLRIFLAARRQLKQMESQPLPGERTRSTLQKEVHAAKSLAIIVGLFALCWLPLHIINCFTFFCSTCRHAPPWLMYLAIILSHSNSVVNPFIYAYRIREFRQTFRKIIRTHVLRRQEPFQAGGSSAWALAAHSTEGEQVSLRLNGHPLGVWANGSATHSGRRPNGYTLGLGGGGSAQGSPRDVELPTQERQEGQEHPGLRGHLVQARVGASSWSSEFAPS

SMILES | Ki (adenosine A1 receptor) | Ratio A2 /A1 (adenosine A1 receptor) | Ki (A2 receptor) | selectivity for the A1 receptor over the A2 receptor (A1 receptor)
OC[C@H]1O[C@@H](n2cnc3c(NC4CCCC4)nc(Cl)nc32)[C@H](O)[C@@H]1O [CCPA, 2-chloro-N-cyclopentyladenosine] |  |  |  | most selective for the A1 receptor over the A2 receptor
C[C@H](CSc1nc2cc(Cl)ccc2s1)Nc1nc(Cl)nc2c1ncn2[C@@H]1O[C@H](CO)[C@@H](O)[C@H]1O [Example 22, 2-Chloro-N-[(R)-1-(5-chloro-2-benzothiazolyl)thio-2-propyl]adenosine] | 10 nM | 100 | 1000 nM | 
C[C@H](CSc1cccs1)Nc1nc(Cl)nc2c1ncn2[C@@H]1O[C@H](CO)[C@@H](O)[C@H]1O [Example 23, 2-Chloro-N-[(R)-1-(2-thienyl)thio-2-propyl]adenosine] | 4.5 nM | 38 | 170 nM | 
C[C@H](CSc1n[nH]c(-c2ccccc2)n1)Nc1nc(Cl)nc2c1ncn2[C@@H]1O[C@H](CO)[C@@H](O)[C@H]1O [Example 27, 2-Chloro-N-{(R)-1-[5-phenyl-(1,2,4-triazol-3-yl)]thio-2-propyl}adenosine] | 14 nM | 355 | 4970 nM | 

The remaining compounds from weak to strong by Ki (adenosine A1 receptor), led by results:

Ki (adenosine A1 receptor) | Ratio A2 /A1 (adenosine A1 receptor) | Ki (A2 receptor) | SMILES | selectivity for the A1 receptor over the A2 receptor (A1 receptor)
9 nM | 110 | 990 nM | Cc1nnc(SC[C@@H](C)Nc2nc(Cl)nc3c2ncn3[C@@H]2O[C@H](CO)[C@@H](O)[C@H]2O)s1 [Example 3, 2-Chloro-N-{(R)-1-[5-methyl-(1,3,4-thiadiazol-2-yl)]thio-2-propyl}adenosine] | 
7 nM | 136 | 950 nM | CC[C@H](CSc1nc2ccccc2s1)Nc1nc(Cl)nc2c1ncn2[C@@H]1O[C@H](CO)[C@@H](O)[C@H]1O [Example 15, N-[(R)-1-(2-Benzothiazolyl)thio-2-butyl]-2-chloroadenosine] | 
3.4 nM | 756 | 2570 nM | C[C@H](CSc1nc2ccccc2s1)Nc1nc(F)nc2c1ncn2[C@@H]1O[C@H](CO)[C@@H](O)[C@H]1O [Example 13, N-[(R)-1-(2-Benzothiazolyl)thio-2-propyl]-2-fluoroadenosine] | 
